Measured values as given in paper PMC4585259 (Frontiers in Pharmacology, 2015).
Like-named read-outs stand apart in the source and are kept apart here.

Biological target: T1, rNav1.2 sodium channels (Rattus norvegicus, UniProt P04775)
T1 construct: host or cells: HEK-293
Test: QPatch automated patch clamp, inhibition of sodium currents evoked by 5 Hz trains at three extracellular pH values
Format: cell-based
Conditions: for class of pH-dependence pattern (cluster analysis): Ward's method on 18 variables of affinity, reversibility, onset; for KD app, effect of acidic medium: pH = 6.0 vs neutral, increased KD app = decreased apparent affinity
Experimental: HEK-293 cells stably expressing rNav1.2 sodium channels were obtained from NeuroSearch (Ballerup, Denmark). The cells were grown in Dulbecco's modified Eagle medium supplemented with 10% FBS. Prior to use, the cells were trypsinized and subsequently kept in suspension in the QPatch cell storage facility in CHO-S- SFM-II medium.
Composition of the extracellular solution was: (in mM): 140 NaCl, 3 KCl, 1 CaCl2 1 MgCl2, 0.1 CdCl2, 20 TEA-Cl, 5 HEPES, adjusted to pH 7.3, Osmolality: 320 mOsm. […] Drugs were synthesized in Gedeon Richter Plc. […] The full list of drugs, with their three-letter codes, concentration, as well as their main therapeutic indication and main mechanism of action are shown in Table 1. […] The choice of concentrations used in this study may seem unusually high.
Data were sampled at a frequency of 25 kHz and filtered at 5 kHz. Junction potential was calculated to be −11 mV and was corrected for. […] Cells having membrane resistance < 500 MOhm, series resistance > 9 MOhm, or capacitance > 22 pF were excluded from analysis. The experimental protocol was also identical to the one used in our previous study: sodium channels were activated by 5 Hz trains of 5 depolarizations (−90 to −10 mV) repeated in every 20 s. In this study, however, the same control–drug-application–washout sequence was repeated four times: at neutral, acidic, alkalic, and again neutral pH. The peak amplitudes of sodium currents throughout the whole experiment are shown plotted against time in Figure 1 and Supplementary Figure 1.
Initial analysis, including subtraction of leak and capacitive artifacts, as well as peak detection were done in the QPatch software. […] All experiments were normalized to the amplitude of the current evoked by the first depolarization of the last train under control conditions. […] For all four drug applications in an experiment, apparent affinity, onset and offset time constants as well as reversibility values were calculated. […] (This method is equivalent to applying the Lineweaver-Burk plot method using a single concentration.) Reversibility values were calculated from control (c), inhibited (i), and wash-out (w) amplitudes as follows: Reversibility = (w-i)/(c-i). Reversibility values should not be regarded as experimental platform-independent properties of compounds. […] However, reversibility values are a valuable source of information regarding physicochemical differences between individual drugs, or between effects of the same drug under different extracellular pH conditions. Onset and offset time constants were determined by single exponential fitting to individual experiments. For neutral pH numerical data were given as the average of the data from the first and the last drug applications. Thin black lines on Figure 1 and Supplemental Figure 1 show the average of five fitted exponentials, (not the exponential fitted to the averaged normalized amplitudes). The numerical values of apparent affinity, onset and offset time constants and reversibility are shown in Table 2, and their relative position is illustrated in Figure 2. Affinity and time constant values were logarithmically transformed for statistics, therefore we show their geometric mean. For recovery data no transformation was done, and we show arithmetic mean values. Significance values were calculated using paired, two-tailed Student's t-test based on five pairs of apparent affinity (log transform), time constant (log transform), or reversibility values obtained from five individual experiments. Because of the large number of comparisons in this study, we accepted p < 0.01 as significant. Cluster analysis was done using Ward's minimum variance method, with Euclidean distance measure. Data were normalized by subtracting the mean (after logarithmic transformation in the case of apparent affinity and time constants), and dividing by the standard deviation.

[1] = pH 6.0, concentration (lidocaine 300 μM, memantine 30 μM)
[2] = pH 6.0, single concentration (lidocaine 300 μM, memantine 30 μM), geometric mean of 5, read-out: apparent affinity
[3] = pH 7.3, concentration (lidocaine 300 μM, memantine 30 μM)
[4] = pH 7.3, single concentration (lidocaine 300 μM, memantine 30 μM), geometric mean of 5, read-out: apparent affinity
[5] = pH 8.6, concentration (lidocaine 300 μM, memantine 30 μM)
[6] = pH 8.6, single concentration (lidocaine 300 μM, memantine 30 μM), geometric mean of 5, read-out: apparent affinity
[7] = pH=6.0, cc 300 mM, read-out: Apparent Affinity
[8] = pH=7.3, cc 300 mM, read-out: Apparent Affinity
[9] = pH=8.6, cc 300 mM, read-out: Apparent Affinity
[10] = pH 6.0, higher concentration: lidocaine 1000 μM, memantine 100 μM
[11] = pH 6.0, higher concentration: lidocaine 1000 μM, memantine 100 μM, read-out: apparent affinity
[12] = pH 7.3, higher concentration: lidocaine 1000 μM, memantine 100 μM
[13] = pH 7.3, higher concentration: lidocaine 1000 μM, memantine 100 μM, read-out: apparent affinity
[14] = pH 8.6, higher concentration: lidocaine 1000 μM, memantine 100 μM
[15] = pH 8.6, higher concentration: lidocaine 1000 μM, memantine 100 μM, read-out: apparent affinity
[16] = pH=6.0, cc 100 mM, read-out: Apparent Affinity
[17] = pH=7.3, cc 100 mM, read-out: Apparent Affinity
[18] = pH=8.6, cc 100 mM, read-out: Apparent Affinity

T1 sequence (P04775 whole entry): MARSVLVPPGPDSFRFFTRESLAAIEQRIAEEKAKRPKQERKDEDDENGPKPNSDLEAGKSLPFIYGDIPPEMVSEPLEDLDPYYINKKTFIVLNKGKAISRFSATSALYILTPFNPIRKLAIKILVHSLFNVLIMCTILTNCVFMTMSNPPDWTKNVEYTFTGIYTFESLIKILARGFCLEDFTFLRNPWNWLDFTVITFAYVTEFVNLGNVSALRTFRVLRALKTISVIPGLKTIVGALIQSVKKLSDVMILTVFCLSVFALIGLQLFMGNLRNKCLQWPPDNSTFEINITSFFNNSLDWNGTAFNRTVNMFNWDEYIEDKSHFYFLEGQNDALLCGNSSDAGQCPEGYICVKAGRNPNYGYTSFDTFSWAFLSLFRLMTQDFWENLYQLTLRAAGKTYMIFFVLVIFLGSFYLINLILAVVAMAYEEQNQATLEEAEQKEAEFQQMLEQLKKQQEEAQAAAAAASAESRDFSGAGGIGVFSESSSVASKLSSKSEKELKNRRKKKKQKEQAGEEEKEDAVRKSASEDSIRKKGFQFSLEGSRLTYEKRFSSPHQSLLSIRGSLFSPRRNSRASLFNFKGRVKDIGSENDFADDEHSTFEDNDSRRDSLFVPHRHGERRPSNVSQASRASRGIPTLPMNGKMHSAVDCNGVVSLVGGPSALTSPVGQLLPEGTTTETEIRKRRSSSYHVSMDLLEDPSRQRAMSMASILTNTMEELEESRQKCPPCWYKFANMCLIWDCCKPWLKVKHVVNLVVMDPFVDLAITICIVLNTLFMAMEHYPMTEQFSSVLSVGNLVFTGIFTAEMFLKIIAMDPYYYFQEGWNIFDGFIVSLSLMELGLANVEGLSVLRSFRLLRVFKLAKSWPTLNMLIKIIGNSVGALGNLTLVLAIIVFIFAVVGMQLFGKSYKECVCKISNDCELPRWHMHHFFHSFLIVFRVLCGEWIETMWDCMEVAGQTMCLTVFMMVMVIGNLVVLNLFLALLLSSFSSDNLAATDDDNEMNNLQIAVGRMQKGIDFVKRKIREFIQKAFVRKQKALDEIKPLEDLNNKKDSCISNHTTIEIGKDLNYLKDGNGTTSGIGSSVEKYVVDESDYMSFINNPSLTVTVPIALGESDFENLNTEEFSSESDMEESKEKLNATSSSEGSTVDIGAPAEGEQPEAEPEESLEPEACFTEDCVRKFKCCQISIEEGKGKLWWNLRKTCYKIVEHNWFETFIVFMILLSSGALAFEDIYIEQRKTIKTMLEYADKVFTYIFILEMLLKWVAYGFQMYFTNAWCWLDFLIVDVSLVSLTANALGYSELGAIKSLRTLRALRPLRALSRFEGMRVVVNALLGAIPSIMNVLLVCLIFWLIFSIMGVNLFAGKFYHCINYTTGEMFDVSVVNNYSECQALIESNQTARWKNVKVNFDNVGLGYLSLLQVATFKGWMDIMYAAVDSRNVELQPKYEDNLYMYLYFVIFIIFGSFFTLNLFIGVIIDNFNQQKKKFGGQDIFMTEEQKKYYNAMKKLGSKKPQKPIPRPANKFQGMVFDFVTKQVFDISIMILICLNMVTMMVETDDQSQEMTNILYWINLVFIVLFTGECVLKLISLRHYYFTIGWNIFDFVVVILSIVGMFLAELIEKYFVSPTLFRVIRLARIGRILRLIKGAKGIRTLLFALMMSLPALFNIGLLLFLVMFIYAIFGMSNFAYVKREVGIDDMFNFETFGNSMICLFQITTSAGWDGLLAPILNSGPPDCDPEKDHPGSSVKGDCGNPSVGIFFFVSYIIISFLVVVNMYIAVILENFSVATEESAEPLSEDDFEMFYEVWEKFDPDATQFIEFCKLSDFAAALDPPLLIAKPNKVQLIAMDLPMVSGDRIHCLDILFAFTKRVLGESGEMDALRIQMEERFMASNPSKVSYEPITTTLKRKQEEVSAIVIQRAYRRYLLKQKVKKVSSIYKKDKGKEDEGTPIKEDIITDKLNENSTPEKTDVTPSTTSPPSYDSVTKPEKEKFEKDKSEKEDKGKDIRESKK

Nc1nnc(-c2cccc(Cl)c2Cl)c(N)n1 [lamotrigine]
class of pH-dependence pattern (cluster analysis): Class A
Ratio Reversibility (pH 6.0/7.3, cc 300 mM): 0.765
Ratio Tau Offset (pH 6.0/7.3, cc 300 mM): 1.075
Ratio Tau Onset (pH 6.0/7.3, cc 300 mM): 0.877
log Ratio App Aff (pH 6.0/7.3, cc 300 mM): -0.277
Ratio Reversibility (pH 6.0/8.6, cc 300 mM): 0.930
Ratio Tau Offset (pH 6.0/8.6, cc 300 mM): 0.809
Ratio Tau Onset (pH 6.0/8.6, cc 300 mM): 0.713
log Ratio App Aff (pH 6.0/8.6, cc 300 mM): -0.398
τoffset [1]: 14.40 s
τonset [1]: 11.40 s
Kd [2]: 329 µM
Ratio Reversibility (pH 7.3/8.6, cc 300 mM): 1.215
Ratio Tau Offset (pH 7.3/8.6, cc 300 mM): 0.753
Ratio Tau Onset (pH 7.3/8.6, cc 300 mM): 0.813
log Ratio App Aff (pH 7.3/8.6, cc 300 mM): -0.121
τoffset [3]: 13.40 s
τonset [3]: 13.00 s
Kd [4]: 622 µM
τoffset [5]: 17.80 s
τonset [5]: 16.00 s
Kd [6]: 821 µM
Reversibility (pH=6.0, cc 300 mM): 0.74
Kd [7]: 329 µM
Reversibility (pH=7.3, cc 300 mM): 0.96
Kd [8]: 622 µM
Reversibility (pH=8.6, cc 300 mM): 0.79
Kd [9]: 821 µM

CCN(CC)CC(=O)Nc1c(C)cccc1C [lidocaine]
class of pH-dependence pattern (cluster analysis): Class A
τoffset [1]: 8.49 s
τonset [1]: 6.17 s
τonset [10]: 5.20 s
Kd [11]: 1670 µM
Kd [2]: 917 µM
τoffset [3]: 7.59 s
τonset [3]: 5.14 s
τonset [12]: 5.20 s
Kd [13]: 1030 µM
Kd [4]: 806 µM
τoffset [5]: 5.98 s
τonset [5]: 4.86 s
τonset [14]: 5.60 s
Kd [15]: 677 µM
Kd [6]: 515 µM
Reversibility (pH=6.0, cc 300 mM): 0.66
Kd [7]: 917 µM
Kd (pH=6.0, cc 1000 mM, read-out: Apparent Affinity): 1670 µM
Kd [8]: 806 µM
Kd (pH=7.3, cc 1000 mM, read-out: Apparent Affinity): 1030 µM
Kd [9]: 515 µM
Kd (pH=8.6, cc 1000 mM, read-out: Apparent Affinity): 677 µM

CC12CC3CC(C)(C1)CC(N)(C3)C2 [memantine]
class of pH-dependence pattern (cluster analysis): Class F
Ratio Reversibility (pH 6.0/7.3, cc 30 mM): 0.946
Ratio Tau Offset (pH 6.0/7.3, cc 30 mM): 1.093
Ratio Tau Onset (pH 6.0/7.3, cc 30 mM): 0.877
log Ratio App Aff (pH 6.0/7.3, cc 30 mM): 0.255
Ratio Reversibility (pH 6.0/7.3, cc 100 mM): 0.974
Ratio Tau Offset (pH 6.0/7.3, cc 100 mM): 0.656
Ratio Tau Onset (pH 6.0/7.3, cc 100 mM): 1.032
log Ratio App Aff (pH 6.0/7.3, cc 100 mM): 0.109
Ratio Reversibility (pH 6.0/8.6, cc 30 mM): 1.464
Ratio Tau Offset (pH 6.0/8.6, cc 30 mM): 1.000
Ratio Tau Onset (pH 6.0/8.6, cc 30 mM): 0.688
log Ratio App Aff (pH 6.0/8.6, cc 30 mM): 0.915
Ratio Reversibility (pH 6.0/8.6, cc 100 mM): 1.593
Ratio Tau Offset (pH 6.0/8.6, cc 100 mM): 0.550
Ratio Tau Onset (pH 6.0/8.6, cc 100 mM): 0.842
log Ratio App Aff (pH 6.0/8.6, cc 100 mM): 0.840
τoffset [1]: 23.60 s
τonset [1]: 12.80 s
τoffset [10]: 12.20 s
τonset [10]: 12.80 s
Kd [11]: 303 µM
Kd [2]: 394 µM
Ratio Reversibility (pH 7.3/8.6, cc 30 mM): 1.547
Ratio Tau Offset (pH 7.3/8.6, cc 30 mM): 0.915
Ratio Tau Onset (pH 7.3/8.6, cc 30 mM): 0.785
log Ratio App Aff (pH 7.3/8.6, cc 30 mM): 0.661
Ratio Reversibility (pH 7.3/8.6, cc 100 mM): 1.636
Ratio Tau Offset (pH 7.3/8.6, cc 100 mM): 0.838
Ratio Tau Onset (pH 7.3/8.6, cc 100 mM): 0.816
log Ratio App Aff (pH 7.3/8.6, cc 100 mM): 0.731
τoffset [3]: 21.60 s
τonset [3]: 14.60 s
τoffset [12]: 18.60 s
τonset [12]: 12.40 s
Kd [13]: 236 µM
Kd [4]: 219 µM
τoffset [5]: 23.60 s
τonset [5]: 18.60 s
τoffset [14]: 22.20 s
τonset [14]: 15.20 s
Kd [15]: 43.8 µM
Kd [6]: 47.9 µM
KD app, effect of acidic medium: MEM,MEX,TOL↑
Reversibility (pH=6.0, cc 30 mM): 0.82
Kd (pH=6.0, cc 30 mM, read-out: Apparent Affinity): 394 µM
Reversibility (pH=6.0, cc 100 mM): 0.89
Kd [16]: 303 µM
Reversibility (pH=7.3, cc 30 mM): 0.86
Kd (pH=7.3, cc 30 mM, read-out: Apparent Affinity): 219 µM
Reversibility (pH=7.3, cc 100 mM): 0.92
Kd [17]: 236 µM
Reversibility (pH=8.6, cc 30 mM): 0.56
Kd (pH=8.6, cc 30 mM, read-out: Apparent Affinity): 47.9 µM
Reversibility (pH=8.6, cc 100 mM): 0.56
Kd [18]: 43.8 µM

Cc1cccc(C)c1OCC(C)N (stereo not shown) [mexiletine]
class of pH-dependence pattern (cluster analysis): Class F
effect of alkalic pH on onset/offset kinetics (in words): acceleration of onset
Ratio Reversibility (pH 6.0/7.3, cc 300 mM): 0.987
Ratio Tau Offset (pH 6.0/7.3, cc 300 mM): 1.071
Ratio Tau Onset (pH 6.0/7.3, cc 300 mM): 1.162
log Ratio App Aff (pH 6.0/7.3, cc 300 mM): 0.268
Ratio Reversibility (pH 6.0/8.6, cc 300 mM): 1.300
Ratio Tau Offset (pH 6.0/8.6, cc 300 mM): 0.938
Ratio Tau Onset (pH 6.0/8.6, cc 300 mM): 1.411
log Ratio App Aff (pH 6.0/8.6, cc 300 mM): 0.786
τoffset [1]: 21.00 s
τonset [1]: 15.80 s
Kd [2]: 350 µM
Ratio Reversibility (pH 7.3/8.6, cc 300 mM): 1.317
Ratio Tau Offset (pH 7.3/8.6, cc 300 mM): 0.875
Ratio Tau Onset (pH 7.3/8.6, cc 300 mM): 1.214
log Ratio App Aff (pH 7.3/8.6, cc 300 mM): 0.518
τoffset [3]: 19.60 s
τonset [3]: 13.60 s
Kd [4]: 189 µM
τoffset [5]: 22.40 s
τonset [5]: 11.20 s
Kd [6]: 57.3 µM
KD app, effect of acidic medium: MEM,MEX,TOL↑
Reversibility (pH=6.0, cc 300 mM): 0.78
Kd [7]: 350 µM
Reversibility (pH=7.3, cc 300 mM): 0.79
Kd [8]: 189 µM
Reversibility (pH=8.6, cc 300 mM): 0.60
Kd [9]: 57.3 µM

CN1CCN2c3ncccc3Cc3ccccc3C2C1 (stereo not shown) [mirtazapine]
class of pH-dependence pattern (cluster analysis): Class D
Ratio Reversibility (pH 6.0/7.3, cc 100 mM): 0.272
Ratio Tau Offset (pH 6.0/7.3, cc 100 mM): 1.108
Ratio Tau Onset (pH 6.0/7.3, cc 100 mM): 1.386
log Ratio App Aff (pH 6.0/7.3, cc 100 mM): 0.353
Ratio Reversibility (pH 6.0/8.6, cc 100 mM): 0.495
Ratio Tau Offset (pH 6.0/8.6, cc 100 mM): 0.960
Ratio Tau Onset (pH 6.0/8.6, cc 100 mM): 1.173
log Ratio App Aff (pH 6.0/8.6, cc 100 mM): 0.925
τoffset [1]: 14.40 s
τonset [1]: 12.20 s
Kd [2]: 317 µM
Ratio Reversibility (pH 7.3/8.6, cc 100 mM): 1.821
Ratio Tau Offset (pH 7.3/8.6, cc 100 mM): 0.867
Ratio Tau Onset (pH 7.3/8.6, cc 100 mM): 0.846
log Ratio App Aff (pH 7.3/8.6, cc 100 mM): 0.572
τoffset [3]: 13.00 s
τonset [3]: 8.80 s
Kd [4]: 141 µM
τoffset [5]: 15.00 s
τonset [5]: 10.40 s
Kd [6]: 37.7 µM
effect of acidic pH on recovery (pH = 6.0 vs 7.3, in words): decreased recovery
Reversibility (pH=6.0, cc 100 mM): 0.26
Kd [16]: 317 µM
Reversibility (pH=7.3, cc 100 mM): 0.95
Kd [17]: 141 µM
Reversibility (pH=8.6, cc 100 mM): 0.52
Kd [18]: 37.7 µM
